# Columns and labels:
# Assay in all cases: Example B2 herbicidal action, post-emergence, pots in glasshouse, damage score 0-10
# Type in all cases: in vivo
# Conditions in all cases: application post-emergence, rate 1000 g/ha, evaluated after 13 days
# Amaranthus retroflexus = test system: Amaranthus retroflexus
# Summary of the method: (§1)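 Seedlings grown 8 days in a controlled glasshouse received a foliar spray of the compound formulated in 50:50 acetone/water plus 0.5% Tween 20; plant damage was assessed 13 days afterward.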
# Echinochloa crus-galli = test system: Echinochloa crus-galli
# Summary of the method: as §1
# Ipomea hederaceae = test system: Ipomea hederaceae
# Summary of the method: as §1
# Setaria faberi = test system: Setaria faberi
# Summary of the method: as §1
# Solanum nigrum = test system: Solanum nigrum
# Summary of the method: as §1
SMILES,AMARE damage score (10=total damage to plant; 0=no damage to plant) (Amaranthus retroflexus),ECHCG damage score (10=total damage to plant; 0=no damage to plant) (Echinochloa crus-galli),IPOHE damage score (10=total damage to plant; 0=no damage to plant) (Ipomea hederaceae),SETFA damage score (10=total damage to plant; 0=no damage to plant) (Setaria faberi),SOLNI damage score (10=total damage to plant; 0=no damage to plant) (Solanum nigrum)
CC(C)C(=O)OC1=C(c2c(F)ccc(Cl)c2Cl)S(=O)(=O)N(CC(F)F)c2nccnc21 [Compound C36],9,7,10,3,9
CCN1c2nccnc2C(OC(=O)C(C)(C)C)=C(c2c(F)ccc(OC)c2Cl)S1(=O)=O [Compound C24],2,4,9,0,9
CCOC(=O)OC1=C(c2cc(Cl)ccc2C(F)(F)F)S(=O)(=O)N(CC(F)F)c2nccnc21 [Compound C120],9,8,10,9,9
CCN1c2nccnc2C(OC(=O)C(C)(C)C)=C(c2c(Cl)ccc(Cl)c2Cl)S1(=O)=O [Compound C72],9,6,10,1,10
CCN1c2nccnc2C(OC(=O)C(C)C)=C(c2ccccc2C(F)(F)F)S1(=O)=O [Compound C63],9,7,10,7,9
CC(C)(C)C(=O)OC1=C(c2cc(C(F)(F)F)ccc2C(F)(F)F)S(=O)(=O)N(CC(F)F)c2nccnc21 [Compound C44],10,9,10,6,10
"CCOC(=O)c1ccc(C(F)(F)F)nc1C1=C(OC(=O)SC)c2nccnc2N(CCC(F)F)S1(=O)=O [Compound C139, 2-[1-(3,3-difluoro-propyl)-4-methylsulfanylcarbonyloxy-2,2-dioxo-1,2-dihydro-2-λ-6-thia-1,5,8-triaza-naphthalen-3-yl]-6-trifluoromethyl-nicotinic acid ethyl ester]",0,0,1,3,0
O=S1(=O)C(c2c(Cl)ccc(Cl)c2Cl)=C(O)c2nccnc2N1CC(F)F [Compound D17],10,9,10,9,10
CC(C)(C)C(=O)OC1=C(c2ccccc2OC(F)(F)F)S(=O)(=O)N(CC(F)F)c2nccnc21 [Compound C21],7,6,9,4,10
CCSC(=O)OC1=C(c2cc(C(F)(F)F)ccc2Cl)S(=O)(=O)N(C)c2nccnc21 [Compound C89],7,6,9,1,10
CC(C)C(=O)OC1=C(c2ccc(Cl)cc2Cl)S(=O)(=O)N(CC(F)(F)C(F)F)c2nccnc21 [Compound C122],5,2,6,3,9
CCSC(=O)OC1=C(c2c(F)ccc(Br)c2Cl)S(=O)(=O)N(CC(F)F)c2nccnc21 [Compound C107],5,5,6,3,7
O=S1(=O)C(c2cc(Cl)cc(C(F)(F)F)c2)=C(O)c2nccnc2N1CC(F)F [Compound D19],0,0,0,0,2
CCOC(=O)OC1=C(c2cc(Cl)cc(C(F)(F)F)c2)S(=O)(=O)N(CC(F)F)c2nccnc21 [Compound C124],10,0,2,0,2
CCN1c2nccnc2C(OC(=O)C(C)(C)C)=C(c2c(F)cccc2C(F)(F)F)S1(=O)=O [Compound C43],5,5,5,3,6
CCN1c2nccnc2C(OC(=O)C(C)(C)C)=C(c2cc(C(F)(F)F)ccc2C(F)(F)F)S1(=O)=O [Compound C46],4,4,5,0,6
CC(C)C(=O)OC1=C(c2cc(C(F)(F)F)ccc2Br)S(=O)(=O)N(CC(F)F)c2nccnc21 [Compound C59],10,7,10,3,10
CC(C)C(=O)OC1=C(c2cc(C(F)(F)F)ccc2Cl)S(=O)(=O)N(C)c2nccnc21 [Compound C90],8,2,9,1,10
CC(C)C(=O)OC1=C(c2c(Br)cccc2Br)S(=O)(=O)N(CC(F)F)c2nccnc21 [Compound C49],9,8,9,6,9
O=S1(=O)C(c2c(Cl)cccc2C(F)(F)F)=C(O)c2c(ncc[n+]2[O-])N1CC(F)F [Compound E2],8,6,8,8,9
CCN1c2nccnc2C(OC(=O)C(C)(C)C)=C(c2cccc(C(F)(F)F)c2Cl)S1(=O)=O [Compound C76],0,0,0,0,3
O=S1(=O)C(c2cc(I)ccc2Cl)=C(O)c2nccnc2N1CC(F)F [Compound D29],5,2,7,3,7
C#CCN1c2nccnc2C(OC(=O)C(C)C)=C(c2c(Cl)ccc(Cl)c2C(F)(F)F)S1(=O)=O [Compound C84],9,7,8,7,10
O=S1(=O)C(c2c(F)cccc2C(F)(F)F)=C(O)c2nccnc2N1CC(F)F [Compound D39],10,9,10,9,9
"CCOC(=O)OC1=C(c2cc(C)ccc2C(F)(F)F)S(=O)(=O)N(CC(F)F)c2nccnc21 [Compound C147, carbonic acid 1-(2,2-difluoro-ethyl)-3-(5-methyl-2-trifluoromethyl-phenyl)-2,2-dioxo-1,2-dihydro-2-λ-6-thia-1,5,8-triaza-naphthalen-4-yl ester ethyl ester]",1,2,9,3,9

# Source: patent publication US8133849B2, “Herbicidal compounds” (Syngenta Limited, priority 2007, dated 2012)
